How the values were obtained:
[1] = biological target: T1, vanilloid receptor-1 (VR1) (Rattus norvegicus, UniProt O35433); assay: [3H]RTX competition binding assay, VR1-expressing CHO cells; settings: displacement of bound [3H]RTX; mean±SEM, 3 experiments
T1 construct: expressed in transfected cells; host or cells: Chinese Hamster Ovary cells (CHO, ATCC CCL-61), Tet-off inducible expression
Method: The binding affinity activity of the target compounds for vanilloid receptor-1 was measured by an in vitro receptor binding affinity assay. In the receptor binding assay, the compounds were evaluated for their ability to displace bound [^3H]RTX from the receptor. The results are expressed in terms of Ki values (mean±SEM, 3 experiments) which represent the concentration of the non-radioactive ligand that displaces half of the bound labeled RTX.
The VR receptor binding affinity activity of the inventive compounds was measured by using Chinese Hamster Ovary (CHO, ATCC, No. CCL-61) cell whose cDNA of VR1 (pUHG102 VR1 plasmid) was transfected, which can control the expression of VR1 according to the presence of tetracycline and Tetracycline on/off system (pTet off regulatory plasmid, Clontech. Inc., USA) that the expression of VR1 is induced by removing tetracycline from the medium. […] The cells were cultured after removing tetracycline prior to 48 hours. The tetracycline free culture medium was seeded at the bottom of T75 flask, incubated to the extent that its density reaches at 90%, and washed once with PBS buffer solution. The cells were collected by using saline solution containing 5 mM EDTA and subjected to centrifugation slightly to obtain precipitates, further, which had been kept at the temperature of −20° C. before use.
Experiments were designed to assess inhibition of specific [^3H]RTX binding to membranes by non-radioactive compounds. The binding assay mixture containing [^3H]RTX ([…]), various concentrations of competitive binding substances, 0.25 mg/ml of BSA (Cohn fraction V), 5×10^4 ˜5×10^5 numbers of VR1 and the expression cell, was admixed with saline solution containing 450 μl of Ca^2+ and Mg^2+ and […] of BSA. Non-specific binding assay was measured after mixing 100 nM of non-radioactive RTX thereto. The reaction mixture was treated for 60 min at 37° C. and the reaction was quenched by cooling over ice. RTX bound to the membrane of VR1 was subjected to centrifugation with maximum velocity for 15 minutes to precipitate its membrane residue, which results in separating from non-binding RTX. The tips of tube containing above precipitate was cut off and the amount of bound radioisotope was determined by scintillation counter (LS6500, Beckman-Coulter, USA). The measurement of binding was determined in triplicate in each experiment, and each experiment was repeated at least two times. Binding data were analyzed by fitting to the Hill equation and the Ki (equilibrium binding parameter) index, the Bmax (maximum binding parameter) index, and the cooperativity index etc., were determined by using origin 6.0 program (Origin, MicroCal Co., USA).
An initial compound was dissolved in DMSO (dimethyl sulfoxide) and diluted with saline solution containing Ca^2+ and […], and […] of BSA.

VR1 [2] = biological target: T2, VR1 (Rattus norvegicus, UniProt O35433); assay: 45Ca influx test in CHO cells expressing VR1, antagonistic activity against 50 nM capsaicin; type: cell-based; settings: 45Ca uptake stimulated with 50 nM capsaicin
T2 construct: expressed in transfected cells; host or cells: Chinese Hamster Ovary cells (CHO, ATCC CCL-61), Tet-off inducible expression
Method: (§1) The ^45Ca Influx test by using CHO cells of the inventive compounds was measured by using Chinese Hamster Ovary (CHO, ATCC, No. CCL-61) cell whose cDNA of VR1 (pUHG102 VR1 plasmid) was transfected, which can control the expression of VR1 according to the presence of tetracycline and Tetracycline on/off system (pTet off regulatory plasmid, Clontech. Inc., USA) that the expression of VR1 is induced by removing tetracycline from the medium.
(§2) The CHO cells were poured onto 24 well plates to the extent that its density reaches at 30% and incubated for 24 hours at 37° C. The culture medium was exchanged to tetracycline free medium to induce the expression of VR1 and tested after 36 hours.
(§3) Together with 0.25 mg/ml BSA (Sigma A2153, USA), 1 Ci/ml ^45Ca(5-30 Ci/g used, ICN. Co., 62005 RT, U.S.A.), the test samples with increasing concentrations were added to each well. At the quenching moment of the incubation with ^45Ca, the cultured cells were removed from the medium, washed three times with cool PBS buffer solution containing 1.8 mM CaCl2 and 400 μl of RIPA buffer solution (50 mM Tris pH 7.4; 150 mM sodium chloride; 0.1% SDS; 1% sodium deoxycholate), was added in each well to homogenize the cells. The plates were stirred for 20 minutes slowly and 300 μl of cell lysate was transferred to scintillation vials from each wells. The radioactivity was determined by scintillation counter.
(§4) The data were assessed by determining four wells per each data point in each experiment and analyzed in computer by being transformed into Hill equation. The experiments were determined in triplicate in each sample comprising inventive compounds and control groups.
In order to determine the antagonistic activity, ^45Ca^2+-uptake stimulating-mixture was added with 50 nM capsaicin and the antagonistic activity was determined by the method for the agonistic activity. In case that 10 μM a certain compound cannot change the capsaicin-inducing activity, the compound shall be regarded as an […].

Male ICR mice = assay: Acetic acid-induced writhing test; type: in vivo; settings: for ED50: Mus musculus, ip, i.p. 30 mins before 1.2% acetic acid i.p., 50% reduction of the number of writhes; for analgesic effect compared with thiourea compounds JYL-827 and 1433: writhing test
Method: The acetic acid-induced writhing test for testing the analgesic activity of inventive compounds prepared from above Examples was performed by the procedure described in the literature (Lee, J. W., Bioorganic & Medicinal Chemistry, pp 1713-1720, 2001).
Male ICR mice having its mean body weight of 25 g (CD-1; Biogenomics Co. Korea) were reared in lighting controlled environment (12 hrs on/12 hrs off) maintaining with temperatures at 22±2° C. and humidity at 50±5% and allowed to eat a diet and to drink tap water ad lib.
Mice were fasted overnight prior to testing and adopted to the environment.
0.3 ml of acetic acid solution (1.2%) was administrated in the mice intraperitoneally and then the mice were put into the transparent acryl box (15×15×15 cm). 5 minutes later, the number of abdominal constrictions was counted for 20 minutes. Each group consisting of ten mice was pretreated with test compounds or solvent (0.2 ml, i.p.) 30 mins before the injection of acetic acid. Test compounds were dissolved in the mixture of ethanol/Tween-80/saline ([…]) or cremophor EL/DMSO/d-water ([…]).
Analgesic activity of each drug was determined at several different concentrations.
The index of analgesic activity (eff) was defined as below Empirical formula 1. Analgesic activity (eff)=100−{(No. of abdominal constriction of test group/No. of abdominal constriction of control group)×100} [Empirical formula 1]
Analgesic activity was expressed as the reduction in the number of abdominal constrictions, of control animals (vehicle-pretreated mice) and animals pretreated with test compounds.

VR1 [3] = biological target: T2, VR1; assay: 45Ca influx test in CHO cells expressing VR1, agonistic activity; type: cell-based; settings: 45Ca uptake
Method: The ^45Ca Influx test by using CHO cells expressing VR1 was performed by the procedure described in the literature (Lee, J. W., Bioorganic & Medicinal Chemistry, pp 1713-1720, 2001).
as §1, §2
as §3, with “In radioactive ^45Ca uptake experiment, The cells were incubated in […] of DMEM medium (Dulbecco's modified Eagles medium: Gibco-BRL, 31600-083) containing free of serum and 1.8 mM CaCl2 for 10 minutes at 37*C. Together” for “Together”
as §4

T2 sequence (O35433 whole entry): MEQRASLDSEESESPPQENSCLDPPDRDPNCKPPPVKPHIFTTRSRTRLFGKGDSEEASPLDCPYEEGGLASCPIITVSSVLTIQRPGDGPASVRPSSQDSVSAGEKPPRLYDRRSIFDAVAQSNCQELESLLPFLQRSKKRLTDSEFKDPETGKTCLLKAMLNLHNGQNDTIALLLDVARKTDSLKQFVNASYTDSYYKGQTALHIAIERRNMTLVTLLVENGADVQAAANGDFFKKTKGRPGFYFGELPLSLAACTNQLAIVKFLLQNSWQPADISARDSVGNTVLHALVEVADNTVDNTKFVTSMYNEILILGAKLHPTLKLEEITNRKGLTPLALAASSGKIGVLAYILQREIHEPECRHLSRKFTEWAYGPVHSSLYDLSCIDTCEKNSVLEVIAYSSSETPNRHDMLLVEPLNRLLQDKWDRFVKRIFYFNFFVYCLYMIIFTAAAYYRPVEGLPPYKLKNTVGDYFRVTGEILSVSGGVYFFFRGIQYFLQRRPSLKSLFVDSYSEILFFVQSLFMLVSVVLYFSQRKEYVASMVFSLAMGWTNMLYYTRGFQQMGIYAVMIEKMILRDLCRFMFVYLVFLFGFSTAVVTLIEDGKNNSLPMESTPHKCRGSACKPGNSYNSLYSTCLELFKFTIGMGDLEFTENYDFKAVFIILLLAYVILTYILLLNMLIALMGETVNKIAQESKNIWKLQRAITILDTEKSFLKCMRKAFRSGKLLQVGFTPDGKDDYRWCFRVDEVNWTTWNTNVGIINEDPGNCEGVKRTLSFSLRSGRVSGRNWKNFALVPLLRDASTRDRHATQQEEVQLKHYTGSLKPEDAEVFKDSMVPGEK
T1 sequence (O35433 whole entry): as above

## CC(C)(C)c1ccc(CN(O)C(=S)NCc2ccc(NS(C)(=O)=O)cc2)cc1 [Compound 28, N-(4-tert-butylbenzyl)-N-hydroxy-N-[4-(methylsulfonylamino)benzyl]thiourea]
[1]
  Ki: 1090 nM
VR1 [2]
  IC50: 470 nM
Male ICR mice
  ED50: 1560 µg/kg
other
  melting point: 137 °C

## COc1cc(CNC(=S)N(O)Cc2ccc(C(C)(C)C)cc2)ccc1NS(C)(=O)=O [Compound 29, N-(4-tert-butylbenzyl)-N-hydroxy-N-[3-methoxy-4-(methylsulfonylamino)benzyl]thiourea]
VR1 [3]
  EC50: 2010 nM
Male ICR mice
  ED50: 0.103 µg/kg
other
  melting point: 112.5 to 115 °C

## CC(C)(C)c1ccc(CN(O)C(=S)NCc2ccc(NS(C)(=O)=O)c(F)c2)cc1 [Compound 30, N-(4-tert-butylbenzyl)-N-hydroxy-N-[3-fluoro-4-(methylsulfonylamino)benzyl]thiourea]
[1]
  Ki: 802 nM
VR1 [3]
  EC50: > 7060 nM
Male ICR mice
  ED50: 1.07 µg/kg
other
  melting point: 124 to 126 °C

## Cc1ccc(CC(COC(=O)C(C)(C)C)CN(O)C(=S)NCc2ccc(NS(C)(=O)=O)cc2)cc1C (centres unmarked) [Compound 35, N-[2-(3,4-dimethylbenzyl)-3-(pivaloyloxy)propyl]-N-hydroxy-N-[4-(methylsulfonylamino)benzyl]thiourea]
[1]
  Ki: 1040 nM
VR1 [3]
  EC50: 1230 nM
VR1 [2]
  IC50: 212 nM
Male ICR mice
  ED50: 2.6 µg/kg
  analgesic effect compared with thiourea compounds JYL-827 and 1433: stronger analgesic effect

## Cc1ccc(CC(COC(=O)C(C)(C)C)CN(O)C(=S)NCc2ccc(NS(C)(=O)=O)c(F)c2)cc1C (centres unmarked) [Compound 37, N-[2-(3,4-dimethylbenzyl)-3-(pivaloyloxy)propyl]-N-hydroxy-N-[3-fluoro-4-(methylsulfonylamino)benzyl]thiourea]
[1]
  Ki: 212 nM
VR1 [2]
  IC50: 93.7 nM
Male ICR mice; ratio of writhing test ED50 values
  analgesic effect, fold stronger than that of Ketorolac: 43,000 fold
Male ICR mice
  analgesic effect compared with thiourea compounds JYL-827 and 1433: stronger analgesic effect

## CC(C)(C)C(=O)OCC(Cc1ccc(C(C)(C)C)cc1)CN(O)C(=S)NCc1ccc(NS(C)(=O)=O)c(F)c1 (centres unmarked) [Compound 41, N-[2-(4-tert-butylbenzyl)-3-(pivaloyloxy)propyl]-N-hydroxy-N-[3-fluoro-4-(methylsulfonylamino)benzyl]thiourea]
[1]
  Ki: 405 nM
VR1 [3]
  EC50 (nM) (VR1/CHO): Weak
VR1 [2]
  IC50 (nM) (VR1/CHO): Weak

## CC(C)(C)c1ccc(CN(O)C(=O)Cc2ccc(NS(C)(=O)=O)cc2)cc1 [Compound 45, N-(4-tert-butylbenzyl)-N-hydroxy-[4-(methylsulfonylamino)phenyl] acetamide]
[1]
  Ki: 6380 nM
VR1 [3]
  EC50: 3500 nM
VR1 [2]
  IC50: 6590 nM
other
  melting point: 161 to 163 °C

## CC(C)(C)c1ccc(CNC(=S)N(O)Cc2ccc(NS(C)(=O)=O)cc2)cc1 [Compound 60, N-(4-tert-butylbenzyl)-N-hydroxy-N-[4-(methylsulfonylamino)benzyl]thiourea]
[1]
  Ki: 4260 nM
VR1 [2]
  IC50: 465 nM
other
  melting point: 124 °C

## Cc1ccc(CC(CNC(=S)N(O)Cc2ccc(NS(C)(=O)=O)cc2)COC(=O)C(C)(C)C)cc1C (centres unmarked) [Compound 61, N-[2-(3,4-dimethylbenzyl)-3-(pivaloyloxy)propyl]-N-hydroxy-N-[4-(methylsulfonylamino)benzyl]thiourea]
[1]
  Ki: 481 nM
VR1 [3]
  EC50 (nM) (VR1/CHO): Weak
VR1 [2]
  IC50 (nM) (VR1/CHO): Weak

## CC(C)(C)c1ccc(CNC(=O)N(O)Cc2ccc(NS(C)(=O)=O)cc2)cc1 [Compound 62, N-(4-tert-butylbenzyl)-N-hydroxy-N-[4-(methylsulfonylamino)benzyl]urea]
VR1 [3]
  EC50: 1060 nM
other
  melting point: 125 °C

Reference: patent US20050288369A1, “Novel n-hydroxy thiourea, urea and amide compounds and the pharmaceutical compositions comprising the same” (priority 2002, published 2005)
